Data from US5906922A, “Delivery of nucleic acids” (Commonwealth Scientific and Industrial Research Organisation, priority 1994, dated 1999).
Where a SMILES comes first, the peptide text is derived from it. The star is where a group is joined. NHC(CH2OLauroyl)3 = CCCCCCCCCCCC(=O)OCC(COC(=O)CCCCCCCCCCC)(COC(=O)CCCCCCCCCCC)N*; X4 = CCCCCCCCCCCC(=O)OCC(CO)(COC(=O)CCCCCCCCCCC)N*

How the values were obtained:
Cos 1 cells [1] = assay type: cell-based, African Green Monkey
Description: Relative levels of cytotoxicity caused by the different agents were compared during the experiment using the dye "Alamar Blue" (Alamar, Sacramento Calif.).
(§1) For experiment "c", a plasmid pPGKlaczNLS encoding β-galactosidase under the control of the mouse PGK promoter (kind gift from G.Hannan) or pSVGAL which utilises the SV40 early promoter (Sleigh, M. J. and Lockett, T. J. (1985). EMBO J. 4:3831-3837),was transfected. This experiment and assay were modified from Feigner et al J. Biol Chem. 269(4) 2550-2561 1994. This protocol allows the simultaneous assessment of 72 different combinations and concentrations of DNA and test agent in a microtitre tray. […] Cytotoxicity was assessed using alamar blue, and a sample graph is shown for experiment a.
(§2) The ratio of [lipid]/[DNA] at which that maximum was achieved is shown. Experiments shown were carried out in Cos 1 cells, as described above. MTS OD is a measure of relative viabilility of the cells exposed to the different agents, a higher value indicates greater cell viability. * These points were taken from a separate experiment and some slight variation between absolute numbers should be expected between experiments.
(§3) The ratio of [lipid]/[DNA] at which that maximum was achieved is shown in brackets for the two different cell types in the following order; (Cos 1) (CHO). Experiments shown were carried out in Cos 1 cells, as described above. Viability was measured with the dye alamar blue . # Denotes compounds tested in a separate experiment. * Viability in this experiment was determined with MTS. OD is a measure of relative viability of the cells exposed to the different agents, and as with alamar blue, a higher value indicates greater cell viability.

Cos 1 cells [2] = experiment: Transfection of pSVLCAT, CAT assay, Cos 1; assay type: cell-based, African Green Monkey
Protocol: To test the transfection properties of the lead compound K3ATP3 (VerafectinA3), whole uncut plasmid carrying the gene encoding CAT (chloramphenicol acetyl transferase) under the control of the SV40 late promoter, pSVLCAT (Cameron, F. H. and Jennings, P. A. (1989) PNAS 86, 9139-9143) was mixed with the test agent and put on Cos 1 cells under various conditions. After 48 hours of culture the level of secreted CAT was assayed from the culture medium.
Solution I: 1 μg Plasmid DNA in 500 μl Dulbeccos Modified Eagles Medium (DME)
Solution II: 0-20 μl VerafectinA3 (2.5 mg/ml 25% DMSO) in 500 μl DME, Vortex
Combine solution I and II, vortex briefly and incubate at room temperature for 10 min.
Add mix to washed cells in 60 mm tissue culture dishes (seeded 0.5×10^6 /dish previous day) for 6 hrs at 37° C., 5% C02. Add 2 ml DME+10% FCS for remainder of 48 hrs. Assay CAT levels in tissue culture medium (Sleigh, M. J. (1986) Anal. Biochem. 156.251-256).
a--Compare VerafectinA3 dissolved in DMSO or ethanol.
b--Compare VerafectinA3 on cells 6 hrs to overnight. VerafectinA3 at 10 mg/ml in 100% solvent was diluted to 2.5 mg/ml with water.
Transfection was carried out as for experiment 1. VerafectinA3 was left in contact with the cells for varying times.
Protocol was the same for the Verafectins as described above. Lipofectamine protocol was according to manufacturers instructions. Cos 1 cells were seeded at 5×10^5 /60 mm dish and adhered overnight in DME with 10% FCS.
Solution A: 0.5 μg pSVLCAT/60 mm dish.
Solution B: Lipofectamine 10 and 15 μl 2 mg/ml (mixed formulation 3:1 with DOPE).
OR; VerafectinA3 and VerafectinG2 20 μl 2 mM (2.8 and 2.3 mg/ml respectively) stock.
OR; VerafectinG2 was also tested with an equimolar amount of DOPE. VerafectinG2 and DOPE were mixed in DDME and vortexed for 30 seconds before use. Solutions A and B were combined before overlaying on washed cells.
The serum free incubation period in the presence of test agents and DNA was 6 hrs, then 1 ml DME+10% FCS was added. At 24 hours medium was changed to 2 ml fresh DME+10% FCS until harvest at 48 hrs.
Cell lines Cos 1 or CHO were transfected with 0.5 μg of pSVLCAT or 2 μg of pPGKlacZ plasmid using a range of concentrations of each transfection compound. The optimal concentration of compound, that is the concentration giving the highest level of CAT at 48 hours or the greatest percentage of lac z (β-galactosidase) staining cells at 24 hours was used to collate data for Table 1. As all compounds were not tested in a single experiment, absolute figures indicating transfection were not used. Rather, symbols are used to indicate the transfection efficiency relative to Lipofectamine (BRL), which was included as a control in all experiments. Table 1 thus indicates the relative efficiencies of a number of compounds in mediating the transfection of at least one cell type.
All test lipopeptide reagents were originally dissolved at 10 mM in 75% DMSO, and subsequently diluted with water to make a 2 mM stock stored at 4° C. Volumes of 2 mM stock lipopeptide ranging from 2 μl to 15 μl were diluted in 500 μl of DDME. 1 μg of plasmid pSVLCAT was separately diluted in 500 μl of DDME. Solutions were combined for 10-20 min at room temperature before adding to 500 μl of DDME in 60 mm dishes of subconfluent CHO cells (2×10^5 day-1) or Cos 1 cells (5×10^5 day-1); washed free of serum with DDME.
Cells were incubated for 6 hrs under standard conditions of 37° C. and 5% CO2 for 6 hours. 1.5 ml of DME/Hams+10% FCS (CHO) or DME+10% FCS (Cos 1) was added to the cells for overnight incubation. Fresh DME/Hams+10% FCS or DME+10% FCS was used to replace the medium for a further 24 hours prior to harvest. Cell lysates were prepared and assayed for CAT activity as described above. For Cos 1 cells, culture supernatants were assayed for CAT activity.
For transfection of pSVLCAT and subsequent assay of CAT enzyme, experiments "a" and "b" were carried out as described above.

Cos 1 cells [3] = experiment: β-gal microtitre plate transfection assay, Cos 1; assay type: cell-based, African Green Monkey; conditions: for units β-gal: Table 2, Cos 1, highest reading of 72 conditions; for relative transfection level (A linker compound as reference): "y" linker experiment c, Cos 1, trilysine trilaurate
Description: as §1
Compounds were tested for their ability to transfect either the CAT or β-gal gene carried on plasmids, and assayed as described above.
as §2
Each of these compounds was tested for transfection ability and cytotoxicity on standard cell lines using standard conditions as described above.
as §3

Cos 1 cells [4] = assay type: cell-based, African Green Monkey; remark: listed apart in the source
Protocol: Relative levels of cytotoxicity were also assayed in subsequent experiments using the dye MTS, marketed as Cell titre 96 Aqueous (Promega).
as §2, §3

cells = experiment: β-gal reporter transfection, "y" linker non-standard amino acids; assay type: cell-based; conditions: K3 "y" TL3 compounds
Protocol: Peptide/fatty acyl conjugates were synthesized using the non-standard amino acids amino butyric (C3), amino caproic (C5) and amino caprylic (C7) acids as the linker groups, a tri-lysine nucleic acid binding domain and laurate for the three fatty acyl groups. In these new conjugates the DNA binding and tris/fatty acyl moieties were separated by an extra 3, 5 and 7 carbon bond lengths respectively when compared with the prototype molecule. These compounds were then tested in the standard manner described above to determine their relative capacity to transfect cells.
K3 "y" TL3 compounds, where y=C3, C5, C7, A, L, G were compared for transfection efficiency to each other and the commercial agent Lipofectamine using the standard β-gal reporter gene system described above.

Cos 1 cells [5] = experiment: Cellular uptake and distribution of fluorescein conjugates (confocal microscopy); assay type: cell-based, African Green Monkey; conditions: for cell staining after treatment: cells fixed fifteen minutes after treatment; for persistence of staining: conjugate washed off after 2 hours, cells grown 24 hours; for distribution in live, unfixed cells: 40× objective
Protocol: In order to assess the ability to deliver compounds into cells, preliminary experiments were conducted with fluorescein alanine ethanolamine palmitate (FLAEP) and fluorescein alanine tris tripalmitate (FLATP3).
After the incubation period as specified in the experiment, up to 24 hours exposure, the cells were washed and fixed in formaldehyde for 20 minutes. Cells were then observed under laser excitation in a Bio Rad MRC 500 confocal microscope.

[6] = Table 3, Cos 1, highest reading of 72 conditions

## CCCCCCCCCCCCCCCC(=O)OCC(CO)(COC(=O)CCCCCCCCCCCCCCC)NC(=O)[C@H](Cc1ccccc1)NC(=O)[C@H](CCCCN)NC(=O)[C@@H](N)CCCCN [K2FTP2]
Cos 1 cells [1]
  toxicity, linkers K, F and L compared: somewhat higher than for the K compound

## CCCCCCCCCCCCCCCC(=O)OCC(COC(=O)CCCCCCCCCCCCCCC)(COC(=O)CCCCCCCCCCCCCCC)NC(=O)[C@H](CCCCN)NC(=O)[C@H](CCCCN)NC(=O)[C@@H](N)CCCCN [K2KTP3]
Cos 1 cells [1]
  cytotoxicity, dipalmitate versus tripalmitate: increase in cytotoxicity

## CCCCCCCCCCCCCCCC(=O)OCC(CO)(COC(=O)CCCCCCCCCCCCCCC)NC(=O)[C@H](CC(C)C)NC(=O)[C@H](CCCCN)NC(=O)[C@@H](N)CCCCN [K2LTP2]
Cos 1 cells [2]; "y" linker experiment a, Cos 1, dilysine dipalmitate
  transfection, linkers K, F and L compared: marginally superior results to F, but was substantially more effective than the K compound
Cos 1 cells [2]; "y" linker experiment b, Cos 1
  transfection, linkers A and L compared: very similar activities
Cos 1 cells [1]
  toxicity, linkers K, F and L compared: somewhat higher than for the K compound

## CCCCCCCCCCCC(=O)OCC(CO)(COC(=O)CCCCCCCCCCC)NC(=O)[C@H](C)NC(=O)[C@H](CCCCN)NC(=O)[C@H](CCCCN)NC(=O)[C@@H](N)CCCCN [K3ATL2] (H-KKKA-X4)
Cos 1 cells [3]; Table 2, Cos 1
  ratio [lipid]/[DNA] at which maximum was achieved: 0.69
Cos 1 cells [3]
  units β-gal: 1.06 × 10^-5 units
Cos 1 cells [3]; Table 3, Cos 1
  ratio [lipid]/[DNA] at which maximum was achieved: .69
Cos 1 cells [3]; [6]
  β-gal (Cos 1): 1.06 × 10^-5
Cos 1 cells [4]
  MTS OD490-655: 1.554
  Viability (Cos 1): 1.55

## CCCCCCCCCCCCCC(=O)OCC(CO)(COC(=O)CCCCCCCCCCCCC)NC(=O)[C@H](C)NC(=O)[C@H](CCCCN)NC(=O)[C@H](CCCCN)NC(=O)[C@@H](N)CCCCN [K3ATM2]
Cos 1 cells [3]; Table 2, Cos 1
  ratio [lipid]/[DNA] at which maximum was achieved: 0.35
Cos 1 cells [3]
  units β-gal: 3.46 × 10^-5 units
Cos 1 cells [3]; Table 3, Cos 1
  ratio [lipid]/[DNA] at which maximum was achieved: .35
Cos 1 cells [3]; [6]
  β-gal (Cos 1): 3.46 × 10^-5
Cos 1 cells [4]
  MTS OD490-655: 1.56
  Viability (Cos 1): 1.56

## CCCCCCCCCCCCCC(=O)OCC(COC(=O)CCCCCCCCCCCCC)(COC(=O)CCCCCCCCCCCCC)NC(=O)[C@H](C)NC(=O)[C@H](CCCCN)NC(=O)[C@H](CCCCN)NC(=O)[C@@H](N)CCCCN [K3ATM3]
Cos 1 cells [3]; Table 2, Cos 1
  ratio [lipid]/[DNA] at which maximum was achieved: 1.39
Cos 1 cells [3]
  units β-gal: 2.86 × 10^-4 units
Cos 1 cells [3]; Table 3, Cos 1
  ratio [lipid]/[DNA] at which maximum was achieved: 1.39
Cos 1 cells [3]; Table 3, Cos 1, # tested in a separate experiment
  β-gal (Cos 1): 2.86 × 10^-4
Cos 1 cells [4]
  MTS OD490-655: 1.22
  Viability (Cos 1): 1.22

## CCCCCCCCCCCC(=O)OCC(COC(=O)CCCCCCCCCCC)(COC(=O)CCCCCCCCCCC)NC(=O)CCCNC(=O)[C@H](CCCCN)NC(=O)[C@H](CCCCN)NC(=O)[C@@H](N)CCCCN [K3C3TL3]
cells
  transfection efficiency compared to Lipofectamine: more efficient at transfection than Lipofectamine
  transfection efficiency compared to standard single amino acid linker: dramatically more efficient than compounds using the standard single amino acid linker

## CCCCCCCCCCCC(=O)OCC(COC(=O)CCCCCCCCCCC)(COC(=O)CCCCCCCCCCC)NC(=O)CCCCCNC(=O)[C@H](CCCCN)NC(=O)[C@H](CCCCN)NC(=O)[C@@H](N)CCCCN [K3C5TL3]
cells
  transfection efficiency compared to Lipofectamine: more efficient at transfection than Lipofectamine
  transfection efficiency compared to standard single amino acid linker: dramatically more efficient than compounds using the standard single amino acid linker

## CCCCCCCCCCCC(=O)OCC(COC(=O)CCCCCCCCCCC)(COC(=O)CCCCCCCCCCC)NC(=O)CNC(=O)[C@H](CCCCN)NC(=O)[C@H](CCCCN)NC(=O)[C@@H](N)CCCCN [K3GTL3] (H-KKKG-{NHC(CH2OLauroyl)3})
Cos 1 cells [3]
  relative transfection level (A linker compound as reference): 12%
cells
  transfection efficiency compared to Lipofectamine: All of the compounds except K3GTL3 were found to be more efficient at transfection than Lipofectamine

## CCCCCCCCCCCC(=O)OCC(COC(=O)CCCCCCCCCCC)(COC(=O)CCCCCCCCCCC)NC(=O)[C@H](CC(C)C)NC(=O)[C@H](CCCCN)NC(=O)[C@H](CCCCN)NC(=O)[C@@H](N)CCCCN [K3LTL3] (H-KKKL-{NHC(CH2OLauroyl)3})
Cos 1 cells [3]
  relative transfection level (A linker compound as reference): 57%
cells
  transfection efficiency compared to Lipofectamine: more efficient at transfection than Lipofectamine

## O=C1OC2(c3ccc(O)cc3Oc3cc(O)ccc32)c2ccccc21 [fluorescein, reference compound]
Cos 1 cells [5]; 10 μM
  cell staining after treatment: only a very weak generalised fluorescence over the whole cell

## fluorescein alanine Tris tripalmitate [FLATP3]
Cos 1 cells [5]; 10 μM
  cell staining after treatment: intense cytoplasmic staining
Cos 1 cells [5]; 10 μM, fixed cells
  localisation of conjugate: appeared to associate preferentially with the cellular and nuclear membranes
Cos 1 cells [5]
  persistence of staining: a pattern that persisted in cells allowed to grow for 24 hours
  distribution in live, unfixed cells: exhibited a similar pattern whether the cells were live or fixed

## fluorescein alanine ethanolamine palmitate [FLAEP]
Cos 1 cells [5]; 10 μM
  cell staining after treatment: intense cytoplasmic staining
Cos 1 cells [5]
  persistence of staining: This same persistence of staining was not observed
  distribution in live, unfixed cells: appeared to enter the cell readily, but was concentrated particularly in the nucleus
